According to PubChem BioAssay (NCI):
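Cells were grown in 96-well plates and exposed to each compound for 48 hours at five concentrations; endpoints were interpolated linearly between bracketing concentrations, or set to the highest concentration if not reached. TGI is the concentration that stops growth completely.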

Experiments:
Test in all cases: NCI-60 cell line screen, 48 h
[1] = system: KM12 colon
[2] = system: MOLT-4 leukemia
[3] = system: M14 melanoma
[4] = system: SNB-19 CNS
[5] = system: MALME-3M melanoma
[6] = system: SR leukemia
[7] = system: OVCAR-5 ovarian
[8] = system: ACHN renal
[9] = system: NCI/ADR-RES ovarian
[10] = system: DU-145 prostate
[11] = system: HL-60(TB) leukemia
[12] = system: MDA-N
[13] = system: MDA-MB-435
[14] = system: A549 NSCLC
[15] = system: MDA-MB-231 breast
[16] = system: UACC-62 melanoma
[17] = system: HT29 colon
[18] = system: DMS 273 small cell lung
[19] = system: SNB-78 CNS
[20] = system: HOP-18 NSCLC

SMILES | TGI [1] | TGI [2] | TGI [3] | TGI [4] | TGI [5] | TGI [6] | TGI [7] | TGI [8] | TGI [9] | TGI [10] | TGI [11] | TGI [12] | TGI [13] | TGI [14] | TGI [15] | TGI [16] | TGI [17] | TGI [18] | TGI [19] | TGI [20]
NC(=O)NC1NC(=O)NC1=O (configuration not stated) | > 100 µM | > 100 µM | > 100 µM | > 100 µM | > 100 µM | > 100 µM | > 100 µM | > 100 µM | > 100 µM | > 100 µM | > 100 µM | > 100 µM | > 100 µM | > 100 µM | > 100 µM | > 100 µM | > 100 µM | – | – | –
CCC(C)C(=O)OC1C(=O)OC2CC3C(C)=CC(=O)C(O)C3(C)C3C4(O)OCC23C1C(C)C4O (configuration not stated) | 0.133 µM | – | 0.0481 µM | – | < 0.021 µM | – | – | 0.257 µM | 6.47 µM | 0.0977 µM | – | 0.232 µM | 0.0723 µM | 2.38 µM | 0.161 µM | 0.188 µM | – | – | – | –
CCOC(=O)/C=C/CC(C)(C)COC(C)=O | > 10 µM | > 10 µM | > 10 µM | – | – | > 10 µM | > 10 µM | > 10 µM | > 10 µM | > 10 µM | > 10 µM | > 10 µM | > 10 µM | > 10 µM | > 10 µM | > 10 µM | – | – | – | –
CCC1CN2CCc3cc(OC)c(OC)cc3C2CC1CC1c2cc(OC)c(OC)cc2CCN1C(=O)C(N)Cc1ccccc1 (configuration not stated) | 10.2 µM | 1.78 µM | 2.19 µM | 6.98 µM | 6.46 µM | 11.4 µM | 9.55 µM | 11.8 µM | – | – | 4.8 µM | – | – | 7.85 µM | – | 11.2 µM | 10.4 µM | 5.22 µM | – | –
NCC(Cl)C(O)c1cnc(N)[nH]1 (configuration not stated) | 2.96 µM | 2.65 µM | – | 19.3 µM | 11.2 µM | – | 20.6 µM | – | > 100 µM | – | 25.4 µM | – | – | 9.28 µM | – | 63 µM | > 37.1 µM | 21.4 µM | > 90.9 µM | 3.45 µM
CC(C)=CCc1c(O)cc(O)c2c1OC(c1ccc(O)cc1)C(O)C2=O (configuration not stated) | 58.9 µM | – | 57.3 µM | > 100 µM | 70.4 µM | – | 61.1 µM | 82.9 µM | – | – | – | – | – | 80.8 µM | – | 46.8 µM | 40.3 µM | – | 95.3 µM | 43.4 µM
COc1ccc(C2C(C(=O)O)=C(CO)Oc3cc4c(cc32)OCO4)cc1 (configuration not stated) | – | – | > 100 µM | > 100 µM | > 100 µM | – | – | > 100 µM | – | – | – | – | – | > 100 µM | – | > 100 µM | > 100 µM | > 100 µM | > 100 µM | > 100 µM
CCOC(=O)C1(CO)CSCCSC1 | > 100 µM | > 100 µM | – | > 100 µM | – | > 100 µM | – | > 100 µM | > 100 µM | > 100 µM | – | > 100 µM | > 100 µM | > 100 µM | > 100 µM | – | > 100 µM | – | – | –
CCN(CC)C(=O)c1cc(OC(C)C)ccc1-c1c(C)cc(OC(C)C)c(OC)c1OC | > 100 µM | > 100 µM | > 100 µM | > 100 µM | > 100 µM | > 100 µM | > 100 µM | > 100 µM | – | – | 96.4 µM | – | – | > 100 µM | – | > 100 µM | > 100 µM | > 100 µM | – | –
CC(=O)OC1C=C(C=O)C(O)(C=O)C2(C)CCCC(C)(C)C12 (configuration not stated) | 5.14 µM | 0.629 µM | – | 12 µM | 2.33 µM | – | 8.16 µM | – | 5.57 µM | – | 0.895 µM | – | – | 13.6 µM | – | 6.1 µM | 3.65 µM | 8.42 µM | 5.44 µM | 1.58 µM
